From ChEMBL document CHEMBL1201862, “PubChem BioAssay data set” (2004)
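Test compounds were applied to cells in 96-well plates for 48 hours at 5 doses. GI50: concentration for 50% inhibition of growth.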 Calls of active or inactive are those of the source. Cut-off read from the data, not from the text of the source: active = GI50 up to about 1.1 µM and inactive = higher.

What was measured:
Experiment in all cases: growth of human tumour cells (NCI), 48 h
SK-MEL-5 = tested on: SK-MEL-5
NCI-H226 = tested on: NCI-H226
CCRF-CEM = tested on: CCRF-CEM
KM12 = tested on: KM12
RPMI-8226 = tested on: RPMI-8226
NCI-H23 = tested on: NCI-H23
SR = tested on: SR
HCC 2998 = tested on: HCC 2998
HOP-92 = tested on: HOP-92
OVCAR-5 = tested on: OVCAR-5
HL-60 = tested on: HL-60
OVCAR-8 = tested on: OVCAR-8
DMS-114 = tested on: DMS-114
DMS-273 = tested on: DMS-273
HT-29 = tested on: HT-29
OVCAR-3 = tested on: OVCAR-3
PC-3 = tested on: PC-3
DU-145 = tested on: DU-145
BT-549 = tested on: BT-549

SMILES | GI50 (SK-MEL-5) | GI50 (NCI-H226) | GI50 (CCRF-CEM) | GI50 (KM12) | GI50 (RPMI-8226) | GI50 (NCI-H23) | GI50 (SR) | GI50 (HCC 2998) | GI50 (HOP-92) | GI50 (OVCAR-5) | GI50 (HL-60) | GI50 (OVCAR-8) | GI50 (DMS-114) | GI50 (DMS-273) | GI50 (HT-29) | GI50 (OVCAR-3) | GI50 (PC-3) | GI50 (DU-145) | GI50 (BT-549)
CCOC(=O)Cc1csc(Nc2ccccc2[N+](=O)[O-])n1 | > 100 µM (inactive) | > 100 µM (inactive) | > 100 µM (inactive) | > 100 µM (inactive) | > 100 µM (inactive) | > 100 µM (inactive) | 29.7 µM (inactive) | > 100 µM (inactive) | > 100 µM (inactive) | > 100 µM (inactive) | > 100 µM (inactive) | > 100 µM (inactive) | > 100 µM (inactive) | 99.1 µM (inactive) | > 100 µM (inactive) | > 100 µM (inactive) | – | – | –
COC(=O)C1C(C(=O)OC)C2(OC)c3ccccc3-c3ccccc3C12 (stereo not drawn) | 18.7 µM (inactive) | 49.5 µM (inactive) | 24.7 µM (inactive) | 35.6 µM (inactive) | 9.89 µM (inactive) | 27.6 µM (inactive) | 15.5 µM (inactive) | 64.3 µM (inactive) | 35 µM (inactive) | > 100 µM (inactive) | 1.97 µM (inactive) | 49.7 µM (inactive) | 20.6 µM (inactive) | 16.7 µM (inactive) | 32.2 µM (inactive) | 31 µM (inactive) | – | – | –
COc1ccc2c[n+](C)c3c4cc(OC)c(OC)cc4ccc3c2c1 | 14.7 µM (inactive) | 15.5 µM (inactive) | 3.37 µM (inactive) | 1.43 µM (inactive) | 2.96 µM (inactive) | 3.12 µM (inactive) | 2.87 µM (inactive) | 8.11 µM (inactive) | 10.1 µM (inactive) | 8.63 µM (inactive) | 8.07 µM (inactive) | 2.14 µM (inactive) | 1.05 µM (active) | 2.28 µM (inactive) | 4.1 µM (inactive) | 3.9 µM (inactive) | 0.849 µM (active) | 10.3 µM (inactive) | 2.85 µM (inactive)
CCOC(=O)c1c(/C=N\Nc2ccccc2)nc2ccccc2c1-c1ccccc1 | 31.2 µM (inactive) | 45.7 µM (inactive) | 19.2 µM (inactive) | 43.9 µM (inactive) | 20.1 µM (inactive) | 39.7 µM (inactive) | 19.2 µM (inactive) | 21.8 µM (inactive) | 45.4 µM (inactive) | > 100 µM (inactive) | 15 µM (inactive) | 32.1 µM (inactive) | 41.6 µM (inactive) | 25 µM (inactive) | 37.6 µM (inactive) | 31.7 µM (inactive) | – | – | –
Cc1ccc2c(c1)SC(c1cc3c(cc1Br)OCO3)S2 (stereo not drawn) | > 31.6 µM (inactive) | > 31.6 µM (inactive) | > 31.6 µM (inactive) | 26.7 µM (inactive) | 18.5 µM (inactive) | > 31.6 µM (inactive) | 23.3 µM (inactive) | 31 µM (inactive) | 6.22 µM (inactive) | > 31.6 µM (inactive) | 22.6 µM (inactive) | > 31.6 µM (inactive) | 15.8 µM (inactive) | 20 µM (inactive) | 18.7 µM (inactive) | > 31.6 µM (inactive) | – | – | –
